In paper PMC11313193, “Which Constituents Determine the Antioxidant Activity and Cytotoxicity of Garlic? Role of Organosulfur Compounds and Phenolics” (International Journal of Molecular Sciences, 2024):
pIC50: −log10 of the molar value. Where two headings read alike, the source gives them in different places.

Experiments:
[1] = Ferric reducing antioxidant power (FRAP) assay; details: 30 min at ambient temperature, pH 3.6, absorbance at 593 nm
Description: The method proposed by Benzie and Strain [91] was employed with a slight modification. Briefly, increasing volumes of solutions of the studied compounds were added to wells of a 96-well microplate prefilled with 200 μL of the working solution composed of 0.3 M acetate buffer, pH 3.6 (10 volumes), 10 mM 2,4,6-tris(2-pyridyl)-s-triazine (TPTZ), in 40 mM HCl (1 volume) and 20 mM FeCl3 (1 volume), was prepared immediately before use. After 30 min incubation at ambient temperature and the absorbance of the Fe^2+-TPTZ complex was read at 593 nm.
(§1) All assays were standardized with respect to Trolox. The antioxidant activity was calculated in each case as a ratio of the slope of the dependence of absorbance change on the concentration of a studied compound to the slope of the dependence of absorbance change of standard samples concerning Trolox on the concentration of Trolox. Antioxidant activities were expressed in moles of Trolox equivalents (TE)/mol of a studied compound, as described previously.

[2] = system: breast cancer MCF-7 cells; design: method as in PMID 32286702; details: 1 mM, 24 h exposure; cited from earlier work
[3] = DPPH^● decolorization assay; details: 30 min at ambient temperature in the dark, absorbance at 517 nm
Description: The assay was performed as described in a previous article. Briefly, increasing volumes of solutions of the studied compounds were introduced to wells of a 96-well microplate, each with 200 μL of 0.3 mM DPPH^● solution in methanol. The reaction was allowed to proceed for 30 min at ambient temperature in the dark, and absorbance at 517 nm was read. The absorbance decrease was a measure of the antioxidant activity.
as §1

MRC-5 fibroblasts = experiment: Cytotoxicity (Neutral Red), MRC-5 fibroblasts; assay type: cell-based, human; details: for pIC50: read-out: IC50 MRC-5; for Concentration at which viability of MRC-5 cells was lowered: p < 0.05
Description: (§2) The PEO1 cells, SKOV-3 cells, and MRC-5 cells were grown at 37 °C and 5% CO2 in RPMI + GlutaMAX medium, McCoy’s 5A medium, and the DMEM + GlutaMAX medium, respectively. The media were supplemented with 10% heat-inactivated fetal calf serum and penicillin/streptomycin. The cell viability was evaluated using the Trypan Blue exclusion test.
(§3) In the cytotoxicity experiments, cells were grown in wells of sterile 96-well plates. The seeding density was 1 × 10^4 for SKOV-3 and MRC-5 cells and 1.5 × 10^4 for PEO1 cells. The cells were allowed to grow in the incubator for 24 h. Then, the medium was removed and new medium with an examined compound was added. The stock solutions of the compounds studied diluted with the appropriate cell medium were filtered before the addition to the cells using 0.22 µm filters. No more than 0.02% of DMSO was present in the media, and it had no discernible impact on the treated cells. Cells not exposed to any compound served as a control. After another 24 h incubation, the medium was gently aspirated, and the wells were added with 2% sterile Neutral Red solution (100 µL). The plates were then incubated (37 °C, 5% CO2) for one hour. The Neutral Red solution was aspirated, and the wells were washed two times with warm (37 °C) PBS. Subsequently, 100 µL of a permeabilization mixture (water/ethanol/glacial acetic acid, 50/49/1, v/v/v) was introduced to each well. The plates were shaken at 700 rpm for 20 min and absorbance was read at a wavelength of 540 nm against 620 nm.

[4] = system: microsomal lipid peroxidation; design: method as in PMID 16822206; details: cited from earlier work
[5] = ABTS^● decolorization assay; details: 30 min incubation at room temperature, absorbance at 734 nm
Description: A modification of the ABTS^● decolorization assay was employed. Briefly, various volumes of solutions of the studied compounds were introduced to wells of a 96-well microplate, each prefilled 200 μL of ABTS^● solution. […] The drop in absorbance after 30 min incubation at room temperature was read as a measure of the antioxidant activity.
as §1

[6] = system: breast cancer HCC-70 cells; design: method as in PMID 32286702; details: 1 mM, 24 h exposure; cited from earlier work
B16 melanocytes = system: B16 melanocytes; design: method as in PMID 33178586; details: read-out: Concentration decreasing proliferation of B16 melanocytes by 50%; cited from earlier work
neuroblastoma N2a cells = system: neuroblastoma N2a cells; design: method as in PMID 24760364; details: after 24 h; read-out: Concentration decreasing proliferation of N2a cells by 50%; cited from earlier work
[7] = system: PEO1 ovarian cancer cells; experiment: Cytotoxicity (Neutral Red), PEO1 cells; assay type: cell-based, human; details: for pIC50: Homo sapiens, read-out: IC50 PEO1
Description: as §2, §3

[8] = system: colon carcinoma HT-29 cells; design: method as in PMID 24282361; details: after 48 h exposure; read-out: Concentration decreasing proliferation of HT-29 cells by 50%; cited from earlier work
[9] = system: SKOV-3 ovarian cancer cells; experiment: Cytotoxicity (Neutral Red), SKOV-3 cells; assay type: cell-based, human; details: 24 h exposure; for Concentration at which viability of SKOV-3 cells was lowered: p < 0.05; for pIC50: Homo sapiens, SK-OV-3, Neutral Red, read-out: IC50 SKOV-3
Description: as §2, §3

A375 melanocytes = system: A375 melanocytes; design: method as in PMID 33178586; details: read-out: Concentration decreasing proliferation of A375 melanocytes by 50%; cited from earlier work
[10] = system: colorectal carcinoma HCT-15 cells; design: method as in PMID 24282361; details: after 48 h exposure; read-out: Concentration decreasing proliferation of HCT-15 cells by 50%; cited from earlier work
lung cancer A549 cells = system: lung cancer A549 cells; design: method as in PMID 16024053; details: 200 μM, 24 h exposure; cited from earlier work
[11] = system: breast cancer MCF-7 cells; design: method as in PMID 18817629; details: 24 h exposure; read-out: Concentration decreasing viability of MCF-7 cells to about 50%; cited from earlier work
MDA-MB-468 cells = system: MDA-MB-468 cells; design: method as in earlier work; details: 1.5 mM, 24 h exposure; cited from earlier work
[12] = system: lung epithelial BEAS-2B cells; design: method as in earlier work; details: 1.5 mM, 24 h exposure; cited from earlier work
[13] = system: cervical epidermoid carcinoma Ca Ski cells; design: method as in PMID 19035312; details: 24 h exposure; read-out: Concentration decreasing viability of Ca Ski cells to about 50%; cited from earlier work
[14] = system: prostatic carcinoma LNCaP cells; design: method as in PMID 16142693; details: 100 μM, 24 h exposure; cited from earlier work
[15] = system: colorectal cancer HCT-116 cells; design: method as in PMID 19202565; details: 400 μM, 24 h exposure; cited from earlier work
[16] = system: A2780 human ovarian carcinoma cells; design: method as in PMID 24362328; details: prolonged treatment; cited from earlier work
SKOV-3 cells = system: SKOV-3 cells; design: method as in PMID 16675472; details: cited from earlier work
[17] = PEO1, 24 h exposure, Neutral Red
[18] = Homo sapiens, MRC5, 24 h exposure, Neutral Red

Compound: alliin
- Antioxidant activity, FRAP [1]: 0.0006 ± 0.0007 mol Trolox equivalents (TE)/mol compound
- Viability of MCF-7 cells (decreased down to) [2]: ca. 75%
- Antioxidant activity, DPPH^● Decolorization [3]: 0.004 ± 0.001 mol Trolox equivalents (TE)/mol compound
- pIC50 (MRC-5 fibroblasts; 24 h exposure, Neutral Red): 3.49
- Termination of lipid peroxidation / prevention of induced microsomal lipid peroxidation [4]: ineffective
- Antioxidant activity, ABTS^● Decolorization [5]: 0.035 ± 0.012 mol Trolox equivalents (TE)/mol compound
- Viability of HCC-70 cells (decreased down to) [6]: ca. 85%

Compound: O=C(O)/C=C/c1ccc(O)cc1 [Coumaric acid]
- Antioxidant activity, FRAP [1]: 0.153 ± 0.003 mol Trolox equivalents (TE)/mol compound
- pIC50 (B16 melanocytes): 2.55
- Antioxidant activity, DPPH^● Decolorization [3]: 0.076 ± 0.005 mol Trolox equivalents (TE)/mol compound
- pIC50 (neuroblastoma N2a cells): 3.98
- Concentration range with no significant decrease in viability of MRC-5 cells (MRC-5 fibroblasts; 24 h exposure): 0 to 1000 µM
- Concentration range with no significant decrease in viability of PEO1 cells ([7]; 24 h exposure): 0 to 1000 µM
- pIC50 [7, 17]: 2.85
- pIC50 [8]: 2.85
- Concentration range with no significant decrease in viability of SKOV-3 cells [9]: 0 to 1000 µM
- pIC50 (A375 melanocytes): 2.60
- Antioxidant activity, ABTS^● Decolorization [5]: 0.585 ± 0.082 mol Trolox equivalents (TE)/mol compound
- pIC50 [10]: 2.80

Compound: C=CCSCC=C [Allyl sulfide]
- Antioxidant activity, FRAP [1]: 0.0026 ± 0.0010 mol Trolox equivalents (TE)/mol compound
- Antioxidant activity, DPPH^● Decolorization [3]: −0.006 ± 0.011 mol Trolox equivalents (TE)/mol compound
- Concentration range with no significant decrease in viability of MRC-5 cells (MRC-5 fibroblasts; 24 h exposure): up to 100 µM
- Concentration at which viability of MRC-5 cells was lowered (MRC-5 fibroblasts; 24 h exposure): 200 to 500 µM
- pIC50 (MRC-5 fibroblasts; [18]): 3.79
- Concentration range with no significant decrease in viability of PEO1 cells ([7]; 24 h exposure): up to 100 µM
- pIC50 [7, 17]: 3.59
- Concentration range with no significant decrease in viability of SKOV-3 cells [9]: up to 100 µM
- Concentration at which viability of SKOV-3 cells was lowered [9]: 200 to 500 µM
- pIC50 [9]: 3.61
- Antioxidant activity, ABTS^● Decolorization [5]: 0.016 ± 0.010 mol Trolox equivalents (TE)/mol compound

Compound: C=CCSCC(N)C(=O)O (stereo in doubt) [S-Allyl-D-cysteine]
- Antioxidant activity, FRAP [1]: 0.0003 ± 0.0002 mol Trolox equivalents (TE)/mol compound
- Antioxidant activity, DPPH^● Decolorization [3]: −0.020 ± 0.004 mol Trolox equivalents (TE)/mol compound
- pIC50 (MRC-5 fibroblasts; [18]): 3.24
- pIC50 [9]: 3.38
- Antioxidant activity, ABTS^● Decolorization [5]: 0.070 ± 0.059 mol Trolox equivalents (TE)/mol compound

Compound: C=CCSSCC=C [Diallyl disulfide, diallyl disulfide]
- Reduction of survival of A549 cells (lung cancer A549 cells): about 20%
- Antioxidant activity, FRAP [1]: 0.0025 ± 0.0011 mol Trolox equivalents (TE)/mol compound
- pIC50 [11]: 3.40
- Antioxidant activity, DPPH^● Decolorization [3]: 0.049 ± 0.014 mol Trolox equivalents (TE)/mol compound
- Concentration at which viability of MRC-5 cells was lowered (MRC-5 fibroblasts; 24 h exposure): 300 µM
- pIC50 (MRC-5 fibroblasts; Homo sapiens, MRC5, 24 h): 3.57
- pIC50 ([7]; PEO1, 24 h): 3.58
- Viability of MDA-MB-468 cells (reduced to) (MDA-MB-468 cells): about 65%
- Termination of lipid peroxidation / prevention of induced microsomal lipid peroxidation [4]: efficient lipid peroxidation terminator
- Viability of BEAS-2B cells (reduced to) [12]: about 75%
- pIC50 [13]: ~4.60
- Antioxidant activity, ABTS^● Decolorization [5]: 0.013 ± 0.006 mol Trolox equivalents (TE)/mol compound
- Reduction of survival of LNCaP cells [14]: about 30%
- Survival of HCT-116 cells (decreased to) [15]: ca. 80%

Compound: C=CCSC[C@H](N)C(=O)O [SAC, S-allylcysteine]
- Termination of lipid peroxidation / prevention of induced microsomal lipid peroxidation [4]: ineffective
- Apoptosis of A2780 cells [16]: provoked apoptosis
- Migration and invasiveness of A2780 cells [16]: attenuated
- Proliferation of A2780 cells [16]: inhibited proliferation
- Migration of SKOV-3 cells and their invasiveness (SKOV-3 cells): inhibited

Compound: C=CCSSSCC=C [Diallyl trisulfide, diallyl trisulfide]
- Antioxidant activity, FRAP [1]: 0.0022 ± 0.0004 mol Trolox equivalents (TE)/mol compound
- Antioxidant activity, DPPH^● Decolorization [3]: 0.005 ± 0.0003 mol Trolox equivalents (TE)/mol compound
- Concentration range with no significant decrease in viability of MRC-5 cells (MRC-5 fibroblasts; 24 h exposure): 0 to 50 µM
- Concentration at which viability of PEO1 cells was lowered ([7]; 24 h exposure, p < 0.05): 50 µM
- pIC50 [7, 17]: 3.14
- Concentration at which viability of SKOV-3 cells was lowered [9]: 50 µM
- pIC50 [9]: 3.81
- Antioxidant activity, ABTS^● Decolorization [5]: 0.030 ± 0.006 mol Trolox equivalents (TE)/mol compound
